Measurements published in ChEMBL document CHEMBL4507288 (2021).

What was measured:
[1] = target: Sodium-dependent dopamine transporter (Homo sapiens, UniProt Q01959); experiment: GPCRScan assay: inhibition of DAT; set-up: radioligand conc. used [nm] 3.6 – 16.0, parental cells stable HEK
[2] = target: RAC-gamma serine/threonine-protein kinase (Homo sapiens) (UniProt Q9Y243); conditions: Compound concentration 1000.0 nM
[3] = target: Aurora kinase A (Homo sapiens) (UniProt O14965); conditions: Compound concentration 1000.0 nM
Sequence of Aurora kinase A (Homo sapiens) (O14965 whole entry): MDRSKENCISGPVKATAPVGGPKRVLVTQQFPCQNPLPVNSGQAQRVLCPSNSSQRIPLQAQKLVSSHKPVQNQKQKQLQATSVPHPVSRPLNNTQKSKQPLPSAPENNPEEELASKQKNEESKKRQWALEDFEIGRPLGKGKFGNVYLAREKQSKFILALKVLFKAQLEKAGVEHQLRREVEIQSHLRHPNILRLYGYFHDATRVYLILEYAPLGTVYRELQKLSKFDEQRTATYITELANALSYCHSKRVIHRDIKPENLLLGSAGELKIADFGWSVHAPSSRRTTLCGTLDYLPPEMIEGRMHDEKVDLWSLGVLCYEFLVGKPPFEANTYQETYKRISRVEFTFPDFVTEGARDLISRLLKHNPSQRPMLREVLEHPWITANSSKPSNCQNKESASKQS

[4] = target: Tyrosine-protein kinase Blk (Homo sapiens) (UniProt P51451); conditions: Compound concentration 1000.0 nM
[5] = system: Serine/threonine-protein kinase B-raf (Homo sapiens), P15056 [V600E]; conditions: Compound concentration 1000.0 nM
Sequence of Serine/threonine-protein kinase B-raf (Homo sapiens), P15056 [V600E] (P15056 whole entry V600E): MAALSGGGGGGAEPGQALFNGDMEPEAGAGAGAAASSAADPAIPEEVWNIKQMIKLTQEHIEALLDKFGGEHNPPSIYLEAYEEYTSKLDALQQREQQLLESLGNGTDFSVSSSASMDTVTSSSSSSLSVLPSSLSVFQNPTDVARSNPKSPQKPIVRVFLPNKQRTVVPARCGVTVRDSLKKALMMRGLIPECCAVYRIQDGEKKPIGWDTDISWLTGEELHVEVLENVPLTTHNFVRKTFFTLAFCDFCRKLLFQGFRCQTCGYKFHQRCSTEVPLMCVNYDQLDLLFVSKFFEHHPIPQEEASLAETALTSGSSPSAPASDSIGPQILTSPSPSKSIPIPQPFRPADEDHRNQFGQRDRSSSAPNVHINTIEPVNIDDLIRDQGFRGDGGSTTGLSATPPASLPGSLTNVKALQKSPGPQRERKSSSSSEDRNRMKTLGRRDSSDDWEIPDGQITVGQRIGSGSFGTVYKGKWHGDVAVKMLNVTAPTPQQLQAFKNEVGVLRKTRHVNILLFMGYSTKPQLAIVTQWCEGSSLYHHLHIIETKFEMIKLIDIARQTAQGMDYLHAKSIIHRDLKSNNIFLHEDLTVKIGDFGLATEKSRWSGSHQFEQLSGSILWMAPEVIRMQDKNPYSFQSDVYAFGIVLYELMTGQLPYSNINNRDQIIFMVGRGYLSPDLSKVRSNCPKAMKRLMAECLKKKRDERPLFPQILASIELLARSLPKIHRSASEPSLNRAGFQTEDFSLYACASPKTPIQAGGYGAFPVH

[6] = target: Calcium/calmodulin-dependent protein kinase type 1 (Homo sapiens) (UniProt Q14012); conditions: Compound concentration 1000.0 nM
[7] = target: Calcium/calmodulin-dependent protein kinase type II subunit delta (Homo sapiens) (UniProt Q13557); conditions: Compound concentration 1000.0 nM
[8] = target: Calcium/calmodulin-dependent protein kinase type IV (Homo sapiens) (UniProt Q16566); conditions: Compound concentration 1000.0 nM
[9] = target: Cyclin-dependent kinase 3 (Homo sapiens) (UniProt Q00526); conditions: Compound concentration 1000.0 nM
[10] = target: Cyclin-dependent kinase 8 (Homo sapiens) (UniProt P49336); conditions: Compound concentration 1000.0 nM
[11] = target: Serine/threonine-protein kinase Chk1 (Homo sapiens) (UniProt O14757); conditions: Compound concentration 1000.0 nM
[12] = target: Serine/threonine-protein kinase Chk2 (Homo sapiens) (UniProt O96017); conditions: Compound concentration 1000.0 nM
[13] = target: Citron Rho-interacting kinase (Homo sapiens) (UniProt O14578); conditions: Compound concentration 1000.0 nM
[14] = target: Epithelial discoidin domain-containing receptor 1 (Homo sapiens) (UniProt Q08345); conditions: Compound concentration 1000.0 nM
[15] = target: Epidermal growth factor receptor (Homo sapiens) (UniProt P00533); conditions: Compound concentration 1000.0 nM
[16] = system: Epidermal growth factor receptor (Homo sapiens), P00533 [G719S]; conditions: Compound concentration 1000.0 nM
[17] = system: Epidermal growth factor receptor (Homo sapiens), P00533 [T790M]; conditions: Compound concentration 1000.0 nM
[18] = target: Eukaryotic translation initiation factor 2-alpha kinase 1 (Homo sapiens) (UniProt Q9BQI3); conditions: Compound concentration 1000.0 nM
[19] = system: Receptor-type tyrosine-protein kinase FLT3 (Homo sapiens), P36888 [D835V]; conditions: Compound concentration 1000.0 nM
[20] = system: Receptor-type tyrosine-protein kinase FLT3 (Homo sapiens), P36888 [UNDEFINED MUTATION]; conditions: Compound concentration 1000.0 nM
[21] = system: Receptor-type tyrosine-protein kinase FLT3 (Homo sapiens), P36888 [K663Q]; conditions: Compound concentration 1000.0 nM
[22] = target: Glycogen synthase kinase-3 beta (Homo sapiens) (UniProt P49841); conditions: Compound concentration 1000.0 nM
[23] = target: Tyrosine-protein kinase HCK (Homo sapiens) (UniProt P08631); conditions: Compound concentration 1000.0 nM
[24] = target: Homeodomain-interacting protein kinase 2 (Homo sapiens) (UniProt Q9H2X6); conditions: Compound concentration 1000.0 nM
[25] = target: Mitogen-activated protein kinase 8 (Homo sapiens) (UniProt P45983); conditions: Compound concentration 1000.0 nM
[26] = target: Hepatocyte growth factor receptor (Homo sapiens) (UniProt P08581); conditions: Compound concentration 1000.0 nM
[27] = system: Hepatocyte growth factor receptor (Homo sapiens), P08581 [M1250T]; conditions: Compound concentration 1000.0 nM
[28] = target: Mitogen-activated protein kinase kinase kinase 11 (Homo sapiens) (UniProt Q16584); conditions: Compound concentration 1000.0 nM
[29] = target: Serine/threonine-protein kinase MRCK alpha (Homo sapiens) (UniProt Q5VT25); conditions: Compound concentration 1000.0 nM
[30] = target: Serine/threonine-protein kinase mTOR (Homo sapiens) (UniProt P42345); conditions: Compound concentration 1000.0 nM
[31] = target: Myosin light chain kinase 2, skeletal/cardiac muscle (Homo sapiens) (UniProt Q9H1R3); conditions: Compound concentration 1000.0 nM
[32] = target: Serine/threonine-protein kinase Nek10 (Homo sapiens) (UniProt Q6ZWH5); conditions: Compound concentration 1000.0 nM
[33] = target: Serine/threonine-protein kinase Nek5 (Homo sapiens) (UniProt Q6P3R8); conditions: Compound concentration 1000.0 nM
[34] = target: Serine/threonine-protein kinase Nek6 (Homo sapiens) (UniProt Q9HC98); conditions: Compound concentration 1000.0 nM
Sequence of Serine/threonine-protein kinase Nek6 (Homo sapiens) (Q9HC98 whole entry, canonical isoform): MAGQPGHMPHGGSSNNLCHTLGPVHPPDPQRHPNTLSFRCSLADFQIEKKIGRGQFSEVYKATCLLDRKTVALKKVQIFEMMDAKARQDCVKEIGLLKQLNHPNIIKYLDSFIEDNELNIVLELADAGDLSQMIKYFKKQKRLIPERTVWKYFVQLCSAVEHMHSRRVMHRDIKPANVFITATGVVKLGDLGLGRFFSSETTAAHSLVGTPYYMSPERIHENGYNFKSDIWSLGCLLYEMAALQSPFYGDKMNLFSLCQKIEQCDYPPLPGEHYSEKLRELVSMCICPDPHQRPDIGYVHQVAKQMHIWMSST

[35] = system: Phosphatidylinositol 4,5-bisphosphate 3-kinase catalytic subunit alpha isoform (Homo sapiens), P42336 [H1047L]; conditions: Compound concentration 1000.0 nM
[36] = target: Serine/threonine-protein kinase N1 (Homo sapiens) (UniProt Q16512); conditions: Compound concentration 1000.0 nM
[37] = target: Protein kinase C theta type (Homo sapiens) (UniProt Q04759); conditions: Compound concentration 1000.0 nM
[38] = target: Serine/threonine-protein kinase D1 (Homo sapiens) (UniProt Q15139); conditions: Compound concentration 1000.0 nM
Sequence of Serine/threonine-protein kinase D1 (Homo sapiens) (Q15139 whole entry): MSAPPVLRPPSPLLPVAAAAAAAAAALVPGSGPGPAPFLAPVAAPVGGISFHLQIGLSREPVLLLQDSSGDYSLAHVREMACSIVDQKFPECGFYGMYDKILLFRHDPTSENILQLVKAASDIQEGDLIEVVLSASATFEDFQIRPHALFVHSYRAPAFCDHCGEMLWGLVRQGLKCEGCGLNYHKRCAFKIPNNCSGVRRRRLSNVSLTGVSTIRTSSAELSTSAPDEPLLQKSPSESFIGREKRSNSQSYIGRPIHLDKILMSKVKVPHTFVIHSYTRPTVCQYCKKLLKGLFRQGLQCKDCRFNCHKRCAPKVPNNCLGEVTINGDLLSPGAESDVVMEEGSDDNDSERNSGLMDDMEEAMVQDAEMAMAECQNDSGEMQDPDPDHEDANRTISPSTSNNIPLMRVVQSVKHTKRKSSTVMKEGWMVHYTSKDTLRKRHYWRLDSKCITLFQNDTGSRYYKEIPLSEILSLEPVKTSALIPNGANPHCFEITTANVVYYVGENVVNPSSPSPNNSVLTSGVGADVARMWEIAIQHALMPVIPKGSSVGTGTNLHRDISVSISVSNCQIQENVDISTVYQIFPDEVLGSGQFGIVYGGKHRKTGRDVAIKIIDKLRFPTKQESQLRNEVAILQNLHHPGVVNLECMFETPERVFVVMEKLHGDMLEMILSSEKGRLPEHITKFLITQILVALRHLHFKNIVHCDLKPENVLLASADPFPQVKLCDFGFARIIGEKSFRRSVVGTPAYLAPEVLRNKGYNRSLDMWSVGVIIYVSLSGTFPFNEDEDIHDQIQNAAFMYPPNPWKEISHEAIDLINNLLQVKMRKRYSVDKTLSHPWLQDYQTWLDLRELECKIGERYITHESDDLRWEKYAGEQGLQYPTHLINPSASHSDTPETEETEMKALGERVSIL

[39] = target: Serine/threonine-protein kinase D3 (Homo sapiens) (UniProt O94806); conditions: Compound concentration 1000.0 nM
[40] = system: Proto-oncogene tyrosine-protein kinase receptor Ret (Homo sapiens), P07949 [V804L]; conditions: Compound concentration 1000.0 nM
[41] = target: Ribosomal protein S6 kinase alpha-2 (Homo sapiens) (UniProt Q15349); conditions: Compound concentration 1000.0 nM
[42] = target: Ribosomal protein S6 kinase alpha-6 (Homo sapiens) (UniProt Q9UK32); conditions: Compound concentration 1000.0 nM
Sequence of Ribosomal protein S6 kinase alpha-6 (Homo sapiens) (Q9UK32 whole entry): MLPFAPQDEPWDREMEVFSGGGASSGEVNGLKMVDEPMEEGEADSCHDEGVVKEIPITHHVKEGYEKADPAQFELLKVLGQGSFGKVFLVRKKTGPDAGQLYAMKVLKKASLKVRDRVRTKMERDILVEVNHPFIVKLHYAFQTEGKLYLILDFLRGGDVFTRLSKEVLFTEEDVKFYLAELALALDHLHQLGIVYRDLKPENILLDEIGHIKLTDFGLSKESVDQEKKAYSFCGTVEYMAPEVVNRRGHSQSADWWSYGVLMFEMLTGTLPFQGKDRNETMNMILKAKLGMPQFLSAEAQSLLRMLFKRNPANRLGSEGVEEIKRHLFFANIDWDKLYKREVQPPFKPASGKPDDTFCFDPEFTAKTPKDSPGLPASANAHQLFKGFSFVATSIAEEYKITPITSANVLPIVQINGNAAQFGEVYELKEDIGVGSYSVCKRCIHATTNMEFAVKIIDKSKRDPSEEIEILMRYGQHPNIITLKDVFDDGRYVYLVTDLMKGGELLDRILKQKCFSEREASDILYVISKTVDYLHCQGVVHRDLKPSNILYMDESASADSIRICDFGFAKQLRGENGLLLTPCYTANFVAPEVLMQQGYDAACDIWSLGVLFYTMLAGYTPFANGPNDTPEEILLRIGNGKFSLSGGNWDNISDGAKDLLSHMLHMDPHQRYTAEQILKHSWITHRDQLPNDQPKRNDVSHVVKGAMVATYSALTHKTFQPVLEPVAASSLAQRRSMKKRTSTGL

[43] = target: Non-receptor tyrosine-protein kinase TNK1 (Homo sapiens) (UniProt Q13470); conditions: Compound concentration 1000.0 nM
Sequence of Non-receptor tyrosine-protein kinase TNK1 (Homo sapiens) (Q13470 whole entry): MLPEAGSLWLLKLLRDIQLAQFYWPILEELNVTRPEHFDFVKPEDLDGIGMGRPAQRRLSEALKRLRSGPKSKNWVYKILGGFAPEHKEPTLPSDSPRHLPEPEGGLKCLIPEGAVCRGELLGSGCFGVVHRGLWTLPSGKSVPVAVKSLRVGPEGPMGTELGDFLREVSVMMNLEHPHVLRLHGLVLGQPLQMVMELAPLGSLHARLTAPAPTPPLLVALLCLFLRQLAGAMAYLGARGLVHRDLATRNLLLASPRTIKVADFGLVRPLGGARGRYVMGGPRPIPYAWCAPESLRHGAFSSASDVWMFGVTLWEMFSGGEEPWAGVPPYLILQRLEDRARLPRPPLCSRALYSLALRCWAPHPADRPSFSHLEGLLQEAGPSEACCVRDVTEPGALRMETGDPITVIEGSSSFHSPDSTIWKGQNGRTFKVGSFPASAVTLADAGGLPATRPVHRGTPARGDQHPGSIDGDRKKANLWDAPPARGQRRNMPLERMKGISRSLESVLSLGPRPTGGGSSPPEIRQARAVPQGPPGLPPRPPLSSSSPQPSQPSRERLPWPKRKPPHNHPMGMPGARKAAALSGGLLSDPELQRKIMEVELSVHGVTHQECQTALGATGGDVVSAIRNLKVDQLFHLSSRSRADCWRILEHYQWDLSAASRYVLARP

[44] = target: Serine/threonine-protein kinase ULK3 (Homo sapiens) (UniProt Q6PHR2); conditions: Compound concentration 1000.0 nM
Sequence of Serine/threonine-protein kinase ULK3 (Homo sapiens) (Q6PHR2 whole entry): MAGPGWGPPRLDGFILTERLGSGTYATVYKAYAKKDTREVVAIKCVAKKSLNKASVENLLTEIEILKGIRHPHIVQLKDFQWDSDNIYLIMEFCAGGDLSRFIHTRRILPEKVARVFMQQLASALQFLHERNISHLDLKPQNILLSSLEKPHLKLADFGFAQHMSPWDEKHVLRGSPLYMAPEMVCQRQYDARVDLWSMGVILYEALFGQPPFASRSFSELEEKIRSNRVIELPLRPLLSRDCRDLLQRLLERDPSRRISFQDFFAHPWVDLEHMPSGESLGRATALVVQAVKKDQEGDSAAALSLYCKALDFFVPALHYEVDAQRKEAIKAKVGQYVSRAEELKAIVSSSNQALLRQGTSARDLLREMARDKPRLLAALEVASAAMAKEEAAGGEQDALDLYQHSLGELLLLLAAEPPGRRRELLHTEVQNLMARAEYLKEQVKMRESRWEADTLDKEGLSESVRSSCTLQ

[45] = target: Tyrosine-protein kinase ZAP-70 (Homo sapiens) (UniProt P43403); conditions: Compound concentration 1000.0 nM

Sequence of Sodium-dependent dopamine transporter (Q01959 whole entry): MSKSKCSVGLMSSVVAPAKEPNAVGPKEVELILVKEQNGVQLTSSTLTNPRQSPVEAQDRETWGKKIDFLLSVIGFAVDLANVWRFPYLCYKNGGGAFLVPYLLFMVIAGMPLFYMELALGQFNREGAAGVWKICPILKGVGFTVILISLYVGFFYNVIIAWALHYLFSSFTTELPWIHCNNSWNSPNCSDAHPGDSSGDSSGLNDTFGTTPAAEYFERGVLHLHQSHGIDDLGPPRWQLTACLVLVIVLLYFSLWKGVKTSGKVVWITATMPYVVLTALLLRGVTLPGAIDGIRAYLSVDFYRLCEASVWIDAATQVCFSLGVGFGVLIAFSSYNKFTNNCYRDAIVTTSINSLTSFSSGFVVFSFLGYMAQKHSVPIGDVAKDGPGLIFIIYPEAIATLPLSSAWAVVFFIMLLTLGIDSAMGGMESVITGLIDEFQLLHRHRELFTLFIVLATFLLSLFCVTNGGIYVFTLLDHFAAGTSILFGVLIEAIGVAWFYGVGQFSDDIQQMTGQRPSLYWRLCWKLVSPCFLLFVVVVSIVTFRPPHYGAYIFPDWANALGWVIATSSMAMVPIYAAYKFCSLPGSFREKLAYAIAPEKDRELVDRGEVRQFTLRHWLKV

## CC(C)(C)OC(=O)N1CCCC1CNC1CCC(c2cc(F)ccc2F)(S(=O)(=O)c2ccc(Cl)cc2)CC1 (stereo unspecified) [GSI-NC]
[1]
  Ki: 10 µM
  pKi: 5

## O=S(=O)(NC1CCC(c2cc(F)ccc2F)(S(=O)(=O)c2ccc(Cl)cc2)CC1)C(F)(F)F (stereo unspecified) [MRK-560]
[2]
  residual activity: 100%
[3]
  residual activity: 100%
[4]
  residual activity: 89%
[5]
  residual activity: 86%
[6]
  residual activity: 84%
[7]
  residual activity: 100%
[8]
  residual activity: 100%
[9]
  residual activity: 100%
[10]
  residual activity: 100%
[11]
  residual activity: 100%
[12]
  residual activity: 100%
[13]
  residual activity: 0%
[14]
  residual activity: 100%
[15]
  residual activity: 100%
[16]
  residual activity: 100%
[17]
  residual activity: 93%
[18]
  residual activity: 100%
[19]
  residual activity: 82%
[20]
  residual activity: 97%
[21]
  residual activity: 97%
[22]
  residual activity: 100%
[23]
  residual activity: 85%
[24]
  residual activity: 81%
[25]
  residual activity: 78%
[26]
  residual activity: 100%
[27]
  residual activity: 84%
[28]
  residual activity: 100%
[29]
  residual activity: 91%
[30]
  residual activity: 94%
[31]
  residual activity: 91%
[32]
  residual activity: 100%
[33]
  residual activity: 100%
[34]
  residual activity: 100%
[35]
  residual activity: 41%
[36]
  residual activity: 100%
[37]
  residual activity: 100%
[38]
  residual activity: 100%
[39]
  residual activity: 100%
[40]
  residual activity: 84%
[41]
  residual activity: 95%
[42]
  residual activity: 83%
[43]
  residual activity: 98%
[44]
  residual activity: 82%
[45]
  residual activity: 100%
